According to patent US8440810B2, “Riboswitches, methods for their use, and compositions for use with riboswitches” (Yale University, priority 2002, dated 2013):
Entries after “also recorded” stand apart in the source; their conditions may differ. Like-named read-outs stand apart in the source and are kept apart here.

How the values were obtained:
[1] = tested on: 165 thiM RNA; type: binding, E. coli; settings: for structure modulation: 40 μM each compound; for Kd: thiM RNA as reported in Example 3 (FIG. 13), read-out: apparent KD
Source text: Specifically, TPP-dependent modulation of the spontaneous cleavage of RNA constructs was visualized by polyacrylamide gel electrophoresis (PAGE). […] Some RNAs were subjected to no reaction, partial digestion with alkali, or partial digestion with RNase T1 (G-specific cleavage) (see FIG. 6a). Composite plots of the fraction of RNA cleaved at specific sites versus the logarithm of the concentration of ligand (e.g. FIG. 7a) were generated to provide an estimate of the apparent KD. Fraction cleaved values were normalized relative to the highest and lowest cleavage values measured for each site.
NR, ^−OH and T1 represent RNAs subjected to no reaction, partial digestion with alkali, or partial digestion with RNase Tl (G-specific cleavage), respectively. Product bands representing cleavage after selected G residues are numbered and identified by filled arrowheads. The asterisk identifies modulation of RNA structure involving the Shine-Dalgarno (SD) sequence. Gel separations were analyzed using a phosphorimager (Molecular Dynamics) and quantitated using ImageQuant software.

[2] = tested on: 124 yitJ RNA; assay: In-line probing of 124 yitJ RNA; type: binding, B. subtilis
[3] = tested on: metI leader construct; type: biochemical, B. subtilis; settings: 50 μM; in all instances (yitJ, yoaD, metK, metI leaders)
[4] = tested on: ribD RNA; assay: In-line probing of ribD RNA (RFN element); type: binding, B. subtilis
Experimental: To assess whether the RFN element of ribD was responsive to FMN, a fragment of the corresponding 5′-UTR was 5′-^32P labeled and incubated in the absence and presence of FMN, and the resulting fragments were analyzed by polyacrylamide gel electrophoresis (PAGE). […] To obtain values for apparent dissociation constant (apparent KD) for FMN, in-line probing assays were repeated with trace amounts of ribD RNA and increasing concentrations of FMN; the ligand concentration that correlates with half-maximal modulation of RNA structure should reflect the apparent KD.

[5] = tested on: 80 ydhL RNA; assay: In-line probing of 80 ydhL RNA; type: binding, B. subtilis
[6] = tested on: 93 xpt RNA (C to U mutation at position 74); type: binding, B. subtilis
[7] = tested on: wild-type ydhL riboswitch fused to β-galactosidase reporter gene; assay: ydhL-lacZ β-galactosidase reporter expression; type: cell-based, B. subtilis
[8] = tested on: xpt riboswitch variant with the C to U mutation at position 74, reporter construct; type: cell-based, B. subtilis
[9] = tested on: xpt-pbuX 5′-UTR fused to β-galactosidase reporter gene; assay: xpt-lacZ β-galactosidase reporter expression; type: cell-based, B. subtilis; settings: wild-type xpt construct, six-hour incubation
[10] = tested on: 93 xpt RNA; assay: In-line probing of 93 xpt RNA; type: binding, B. subtilis; settings: for modulation of spontaneous cleavage pattern: 1 μM (adenine as much as 1 mM), 93 xpt and 201 xpt
[11] = tested on: 93 xpt RNA; assay: Equilibrium dialysis with 93 xpt RNA; type: binding, B. subtilis; settings: 500 nM analog
[12] = tested on: btuB leader-lacZ fusion; settings: from Nou and Kadner; Lundrigan and Kadner; cited from earlier work
[13] = tested on: 202-nucleotide mRNA leader (btuB); assay: Equilibrium dialysis with btuB mRNA leader; settings: 5,000 pmoles unlabeled compound added to chamber b
[14] = tested on: 179 lysC RNA; type: binding, B. subtilis; settings: 50 μM unlabeled compound, additional 10 hr
[15] = tested on: lysC 5′-UTR template; assay: In vitro transcription termination assay, lysC 5′-UTR; settings: 10 mM compound
[16] = target: 179 lysC RNA; assay: In-line probing of 179 lysC RNA; settings: read-out: apparent KD; lysine analogs, data not shown, RNA construct not stated
[17] = tested on: lysC 5′-UTR fused to lacZ reporter gene; type: cell-based, B. subtilis; settings: wild-type construct, minimal medium plus 1 mM compound
[18] = tested on: thiM-lacZ fusion
[19] = tested on: 91 thiM RNA; assay: Equilibrium dialysis with thiM RNA using 3H-thiamine; type: binding, E. coli; settings: 100 μM competitor (Example 2)
[20] = tested on: thiC-lacZ fusion
[21] = tested on: btuB leader-lacZ fusion; assay: btuB-lacZ expression assay; type: cell-based, E. coli; settings: wild-type btuB leader
[22] = tested on: 202-nucleotide leader sequence of the btuB mRNA; type: binding, Escherichia coli; settings: AdoCbl analogs of FIG. 4
Experimental: Precursor mRNA leader molecules were prepared by in vitro transcription from templates generated by PCR (see In vivo Expression Constructs and Assays section below) and 5′ ^32p-labeled using methods described previously (Soukup and Breaker, Allosteric nucleic acid catalysts. Curr. Opin. Struct. Biol. 10, […] (2000)). Approximately 20 nM of labeled RNA precursor was incubated as described in the brief description of FIG. 1. Accompanying digestions were carried out using reaction conditions similar to those described previously (Soukup and Breaker, Relationship between internucleotide linkage geometry and the stability of […]. RNA 5, 1308-1325 (1999)). […]
Metabolite-dependent conformational changes in the 202-nucleotide leader sequence of the btuB mRNA. […] The image was generated using a phosphorimager (Molecular Dynamics), and cleavage yields were quantitated by using ImageQuant software. […]
The btuB mRNA leader forms a saturable binding site for AdoCbl. […] 5′-^32P-labeled mRNA leader molecules were incubated, separated, and analyzed as described in the in the legend to FIG. 1A, and include identical control and marker lanes as indicated. […] Fraction cleaved values were normalized relative to the highest and lowest cleavage values measured for each location, including the values obtained upon incubation in the absence of AdoCbl. […]

[23] = translational fusion, 100 μM thiamine, minimal medium

## Cc1ncc(C[n+]2csc(CCOP(=O)(O)O)c2C)c(N)n1 [TP, thiamine monophosphate]
[1]
  structure modulation: induce modulation
  Kd: 3 µM

## Nc1ncnc2c1ncn2[C@@H]1O[C@H](CSC[C@H](N)C(=O)O)[C@@H](O)[C@H]1O [SAC]
[2]
  discrimination relative to SAM: ~10,000 fold
[3]
  modulation of transcription termination: little or no modulation of transcription termination

## Cc1cc2nc3c(=O)[nH]c(=O)nc-3n(C[C@H](O)[C@H](O)[C@H](O)CO)c2cc1C [riboflavin]
[4]
  discrimination relative to FMN: approximately three orders of magnitude
[4]; worded for FMN riboswitches
  discrimination relative to FMN: ~1,000 fold

## c1ncc2[nH]cnc2n1 [P, purine]
[5]
  binding / structural modulation: measurable binding

## CNc1ncnc2nc[nH]c12 [MA, 6-methylaminopurine]
[5]
  binding / structural modulation: measurable binding

## Nc1ncnc2nc[nH]c12 [adenine]
[6]
  structural modulation and binding in equilibrium dialysis: exhibits structural modulation and binding activity
[6]; read-out: apparent KD
  Kd: ~0.1 µM
[7]
  increase in gene expression: greater than 10 fold
[5]
  binding / structural modulation: specific for adenine
[5]; half-maximal change at sites 1 through 4, read-out: apparent KD
  Kd: ~0.3 µM
[5]; listed as A
  binding / structural modulation: measurable binding
[8]
  regulation of reporter expression: no change in the putative protein-dependent control
[9]
  repression of reporter expression: ~4 fold
[10]
  modulation of spontaneous cleavage pattern: does not alter the pattern of RNA cleavage products
[10]; guanine riboswitch from B. subtilis xpt
  apparent KD poorer than for guanine: at least 100,000 fold
[10]; read-out: KD
  Kd: > 300 µM

## Nc1nc2c(ncn2[C@@H]2O[C@H](CO)[C@@H](O)[C@H]2O)c(=O)[nH]1 [guanosine]
[11]
  redistribution of 3H-guanine by excess unlabeled competitor: fails to restore equal distribution

## Nc1nc(N)c2[nH]cnc2n1 [2,6-DAP, 2,6-diaminopurine]
[5]
  binding / structural modulation: measurable binding; also recorded: tightest-binding ligand

## O=c1[nH]cnc2nc[nH]c12 [hypoxanthine]
[10]
  modulation of spontaneous cleavage pattern: induce modulation of spontaneous cleavage

## cyanocobalamin
[12]
  regulatory effector for btuB expression: incapable of serving as a regulatory effector
[13]
  restoration of equal tritium distribution by excess unlabeled compound: does not restore the ratio of tritium to unity

## NCCC[C@H](N)C(=O)O [L-ornithine]
[14]
  restoration of equal tritium distribution by unlabeled competitor: do not restore equal distribution of tritium
[15]
  induction of transcription termination: Neither D-lysine nor L-ornithine induce termination

## Nc1nc(Br)c2[nH]cnc2n1 [2-amino-6-bromopurine]
[10]
  loss in apparent KD relative to guanine: ~1,000 fold

## NCCCC[C@@H](N)C(=O)O [D-lysine]
[14]
  restoration of equal tritium distribution by unlabeled competitor: do not restore equal distribution of tritium
[15]
  induction of transcription termination: Neither D-lysine nor L-ornithine induce termination

## Nc1ncnc2c1ncn2[C@@H]1O[C@H](CSCC[C@H](N)C(=O)O)[C@@H](O)[C@H]1O [SAH, S-adenosylhomocysteine]
[2]
  discrimination relative to SAM: ~100 fold
[3]
  modulation of transcription termination: little or no modulation of transcription termination

## Nc1ncnc2nc(Cl)[nH]c12 [8-chloroadenine]
[5]
  binding / structural modulation: prevents ligand binding

## Nc1ncc2[nH]cnc2n1 [2-aminopurine]
[5]
  binding / structural modulation: measurable binding

## NCCSC[C@H](N)C(=O)O [thiosine, S-(2-aminoethyl)-L-cysteine]
[16]
  Kd: ~30 µM
[15]
  induction of transcription termination: cause an increase in transcription termination
[17]
  repression of β-galactosidase reporter expression: represses β-galactosidase expression

## COc1nc(N)nc2nc[nH]c12 [O^6-methylguanine]
[10]
  loss in apparent KD relative to guanine: > 100 fold

## Cc1ncc(C[n+]2csc(CCO)c2C)c(N)n1 [thiamine]
[18]; transcriptional fusion
  suppression of β-galactosidase activity: not subject to suppression
[18]; [23]
  thiamine-dependent suppression of β-galactosidase activity: 18 fold
[19]
  reversal of 3H-thiamine shift by excess unlabeled compound: could be eliminated
[1]
  structure modulation: induce modulation
  Kd: 40 µM
[20]; transcriptional fusion
  modulation of β-galactosidase activity: 16 fold
[20]; [23]
  thiamine-dependent suppression of β-galactosidase activity: 110 fold

## Cc1ncc(C[n+]2csc(CCO)c2C)c(=O)[nH]1 [oxythiamine]
[19]
  reversal of 3H-thiamine shift by excess unlabeled compound: does not significantly restore the tritium distribution to unity; also recorded: could not be reversed
[1]
  structure modulation: fail to induce structure modulation

## O=c1[nH]c(=O)c2[nH]cnc2[nH]1 [xanthine]
[10]
  modulation of spontaneous cleavage pattern: induce modulation of spontaneous cleavage

## 13-epi-AdoCbl [compound 11]
[21]
  regulatory effector function on reporter gene inside cells: inactive
[22]
  structural modulation (spontaneous cleavage at site 2, U68): inactive
